melting point [°C] | Compound
125 to 126 | CCC(=O)NC1=NN(c2ccc(F)cc2)C(C)C1 (stereo not drawn)
65 to 66 | Cc1cc(C)cc(C(=O)OC2CCCCC2=O)c1 (stereo not drawn)
114 to 116 | COc1cc(COC(=O)NC2Cc3ccccc3C2)ccc1OC(C)=O
127 to 129 | COC(=O)c1sc2ccc(OC)cc2c1OC(C)C#N (stereo not drawn)
190 to 192 | Cc1c(Cl)sc2c1c(-c1ccccc1)nc(=O)n2C
36 to 38 | CCOC(=O)C(C)c1ccc(-c2ccc(F)cc2F)c(F)c1 (stereo not drawn)
48 | CCCCc1ccc(OC)c(-c2csc(N)n2)c1
> 310 | O=C(O)C1CCN(c2ccc3nc4[nH]c(=O)[nH]c4cc3c2)CC1
143 to 145 | CCCCc1c2c(nn1CCCC)c(N)nc1ccccc12
101 to 103 | COCC(=O)Oc1cc(-n2c(=O)cc(C(F)(F)F)n(C)c2=O)c(F)cc1Cl
244 to 247 | Cc1nc(C)n(-c2cc(C)c3[nH]c(=O)ccc3c2)c1[N+](=O)[O-]
168 to 169 | CC(C)c1cccc(C(C)C)c1NC(=S)CCC(=O)c1ccccc1
69.5 | C=C(CC(=O)Nc1cc(Cl)cc(Cl)c1)C(=O)OCCCC
62 to 63 | O=Cc1c(O)ccc2c1OCCO2
160 to 161 | CCOC(=O)CCCSc1ncnc2c(O)n(C)nc12
198 to 201 | CC(C)(C)NS(=O)(=O)c1ccc(Cl)cc1C=C1CCOC1=O

melting point [°C] | Compound
136 to 137 | CCCn1c(=O)c2[nH]c([C@H](C)c3ccccc3)nc2n(CCC)c1=O
119 to 121 | CCCNC(=S)NS(=O)(=O)N1CCC(CCNC(=O)c2cc(Cl)ccc2OC)CC1
230 to 232 | CC(C)CN1C(N)=CC(=O)N2CCN=C21
95 to 96 | COC(=O)CCCON1CCNC1=Nc1c(Cl)cccc1Cl
291 to 293 | CC1CC(=O)NN=C1c1ccc2c(c1)C1(CC1)C(=O)N2 (stereo not drawn)
110 to 111 | CN1CCC(c2nn(-c3ccccc3C(F)(F)F)c3ccccc23)CC1
158 to 161 | CC(CO)C1CCC2C3C=CC4=CC(=O)C5OC5C4(C)C3CCC12C (stereo not drawn)
286 to 288 | CC1(C)CC(=O)C2=C(C1)NC1=C(C(=O)CC(C)(C)C1)C2c1cccc(-n2ccnc2)c1
228 to 231 | COCCc1nc2c(N)nc3cc(Br)ccc3c2n1CCCN1CCCC1=O
161 to 164 | CCOc1nc2c(N)nc(OCCc3ccccc3)nc2n1CC
240 to 244 | Nc1cc(-n2cc(C(=O)O)c(=O)c3cc(F)c(NC4COC4)c(Cl)c32)c(F)cc1F
168 to 170 | Cc1ccc(C(=O)CC(C)C(=O)O)cc1 (stereo not drawn)
136 | CSc1nn(C(=O)NC(C)CCl)c(=O)n1N (stereo not drawn)
138 to 141 | CN(C)N1CSC(=Cc2cc(C(C)(C)C)c(O)c(C(C)(C)C)c2)C1=O
180 to 183 | CCOc1cc(N)c(Cl)cc1C(=O)NCC1CN(Cc2ccccc2)CCCO1 (stereo not drawn)
65 to 70 | COc1cc2c(cc1Nc1ncc(Cl)c(NC3(C(=O)OC(C)C)CCCC3)n1)CCN(CC(=O)N(C)C)CC2

The next lines start with the compound.

Compound | melting point [°C]
C[Si](C)(C)c1cccc2c1S(=O)c1c(cccc1[Si](C)(C)C)S2 | 210 to 211
COc1cc(Nc2nccc(-c3ccc(N4CC(C)NC(C)C4)nc3)n2)cc(OC)c1OC (stereo not drawn) | 110 to 111
CCCCCCCCCCCCCCOc1cc(OCCCCCCc2cccc(O)c2O)cc(C(=O)OC)c1 | 77 to 79
CC(=O)C(=NNc1cccc2ccccc12)Sc1ccc(C(C)C)cc1 | 130 to 133
COc1ccccc1NC(=O)Nc1ncnc(Nc2ccccc2-c2ccccc2)n1 | 219
CS(=O)(=O)c1ccc(-c2cc(C(=O)CCCO)nn2-c2ccc(F)cc2)cc1 | 164 to 166
C(=C\c1nc(COc2ccc(Cn3cnnc3)cc2)co1)/c1ccccc1 | 209 to 210
O=C(O)CS(=O)(=O)c1cccc(-c2nc(=O)c3ccccc3s2)n1 | 192 to 194
CCOc1nc2c(c3ccccc13)c1cc(Cl)ccc1n2C | 161 to 163
O=S(=O)(Nc1cccc(CCOCc2csc(-c3ccc(C(F)(F)F)cn3)n2)c1)C(F)(F)F | 116 to 117
CCCCCCC(C)(C)c1cc(OC)c(C2=C[C@@H]3CC[C@@]2(C(=O)O)C3(C)C)c(OC)c1 | 101 to 102
O=C(Nc1cccc2ccccc12)OCCCC(=O)c1ccccc1 | 95 to 97
CCN1C(=O)C(NC(=O)C(F)(F)F)CCc2c1ccc(Nc1ncc(Cl)c(Nc3ccccc3S(=O)(=O)N(C)C)n1)c2OC (stereo not drawn) | 250 to 251
Cc1cc(C(N)=O)ncc1C(c1c(F)ccc(F)c1F)S(=O)(=O)c1ccc(OC(F)(F)F)cc1 (stereo not drawn) | 219 to 220
CC12CC(=O)C3C(CCC4CC5OC5CC43C)C1CCC2=O (stereo not drawn) | 166 to 167
COc1cccc(OC)c1C(=O)Nc1cc(C(C)(C)C)n[nH]1 | 176 to 178
Nc1nc(NCCc2ccc(CCC3CCCCC3)cc2)nc2c1ncn2C1OC(CO)C(O)C1O (stereo not drawn) | 154 to 160
COc1cc(COc2nn(C)cc2C=O)ccc1OCc1nc(-c2ccco2)oc1C | 155 to 156
COC(=O)c1ccc(OC)c(NC(=N)c2ccc(F)c(Cl)c2)c1 | 120
Cc1cc(F)ccc1C(=C(C=CC=O)c1nnnn1C)c1ccc(F)cc1C | 75 to 95
CC(C)(C)OC(=O)N[C@@H](Cc1ccc(O)c(O)c1)C(=O)O | 148
[N-]=[N+]=Nc1ccc(Cl)cc1C(=NO)c1ccccc1 | 125 to 132

Compound | melting point [°C]
Nc1nc(N)c2c(CCCc3ccc(C(=O)N[C@@H](CCC(=O)O)C(=O)O)cc3)cnc-2[nH]1 | > 250
O=C1CCCCC1c1ccc(F)cc1 (stereo not drawn) | 56 to 59
O=C(O)c1cn(C2CC2)c2c(F)c(N3CCC(N=Cc4ccc(Cl)cc4)C3)c(F)cc2c1=O (stereo not drawn) | 232 to 237
C=NOCc1ccc(CCc2csc(NC(C)=O)n2)cc1 | 136 to 137
Cc1nn(-c2ccccn2)cc1COc1ccc(CO)cc1 | 83 to 84
COCCOc1cc2ncnc(NC3=CC(=O)C(OCc4ccccc4)=CC3=O)c2cc1OC | 218 to 220
CC1=CC(C)(C)Nc2ccc3c(c21)C(=C1SCCCS1)Oc1ccc(F)cc1-3 | 120 to 122
CC(=O)NC(Cc1ccccc1)C1CC(Cc2ccccc2)=NO1 (stereo not drawn) | 97.8 to 98.4
CCOC(=O)C(C)(C)Oc1ccc(-c2ccc(CCNC(=O)c3c(OC)cccc3OC)cc2)cc1 | < 20
CCCCCS(=O)(=O)NC(=O)CCc1ccc(OCCC2(C)OCCO2)cc1Oc1ncc(C(F)(F)F)cc1Cl | 96.5 to 97.5
COc1ccc(-c2ccn3c(=O)c(C(=O)O)ccc3c2)cc1 | > 250
CCN(CC(=O)O)Cc1cc(/C(=N\O)c2cccc(Br)c2)ccc1[N+](=O)[O-] | 131
CC(=O)SCCNC(=O)[C@H](CSC(C)=O)NC(=O)C(C)C | 125 to 127
O=C(Nc1cccc(S(=O)(=O)C(F)(F)F)c1)c1ccc2ccccc2c1O | 194 to 195
O=C(/C=C/c1ccc(NC(=O)Cc2cccc3ccccc23)cc1)NO | 222 to 224
c1ccc2nc3c(nc2c1)OCC1CCCN31 (single isomer, unassigned; (+)) | 121 to 123
CC(C)(C)OC(=O)c1nn(-c2ccc(Cl)cc2Cl)c(-c2ccc(Cl)cc2)c1CC#N | 168
COCCN1C(=S)N(c2ccc(C#N)c(C(F)(F)F)c2)C(=O)C1(C)C | 98 to 99
COCCOCCOCCOc1ccc(-c2nc(C(=O)Nc3nccs3)c(-c3ccc(Cl)cc3)[nH]2)cc1 | 120 to 122
Oc1ccccc1-c1ccccc1P(c1cc(C(F)(F)F)cc(C(F)(F)F)c1)c1cc(C(F)(F)F)cc(C(F)(F)F)c1 | 120 to 121
O=C(COC(=O)c1ccccc1Nc1ccnc2c(C(F)(F)F)cccc12)OC1CCN(Cc2ccccc2)CC1 | 99 to 100
Nc1sc2c(c1C(=O)c1ccc3ccccc3c1)CCCC2 | 95 to 97

Compound | melting point [°C]
CCCCCCCOc1ccc(-c2ccc(N=Nc3ccc(N=Nc4ccc(N(C)C)cc4)cc3)cc2)cc1 | 201 to 203
CC(C)(C)c1cc(CCC(=O)Oc2ccccc2)ccc1O | 106 to 109
O=C(O)CCCCc1cc2cc(Cl)ccc2n1S(=O)(=O)c1ccccc1 | 144 to 148
Cc1nc2cc3[nH]c(-c4ccncc4)nc3cc2s1 | > 300
CCCCCCCCCCCCC#CC#CCCCCCCCC(C(N)=O)C(C)c1ccccc1 (stereo not drawn) | 65.5 to 66.5
Cn1nnnc1SCC1(C)SC2C(NC(=O)Cn3cnnn3)C(=O)N2C1C(=O)O (stereo not drawn) | 152 to 154
Cc1ccc(C(=O)Nc2cn(C3CCCCO3)nc2C(=O)NCCC(F)(F)F)cn1 (stereo not drawn) | 147 to 148
O=c1[nH]nc(OCC2c3ccccc3-c3ccccc32)o1 | 125
O=C1Nc2ccccc2Sc2c1csc2Cl | 287 to 288
CSc1c(C(Cc2ccccc2)C(=O)O)cc(C)c2c1[nH]c1ccccc12 (stereo not drawn) | 186 to 187
N#CC1CN1C(=S)NC(=O)c1ccccc1 (stereo not drawn) | 135 to 140
OC1Cc2cccc(-c3ccccc3)c2C1 (single isomer, unassigned; (+)) | 100 to 101
CSCCn1nc(O)c2[nH]c3cc(Cl)ccc3c(=O)c2c1=O | 275 to 277
COc1ccc2c(c1)Sc1ccc(F)cc1C(O)C2 (stereo not drawn) | 74 to 76
COc1cccc(Sc2ccnc(Nc3cccc(CCO)c3)n2)c1 | 122 to 124
COc1cc(C)nc(NC(=O)NS(=O)(=O)c2cccc(NC(=O)OC(C)C)c2)n1 | 173 to 180
CC1(C)OC(=O)C(OC2CCCC2)=C1c1ccc(S(C)(=O)=O)cc1 | 121 to 122
COc1cc(-c2nc(NC(C)(C)C)c3c(C)c(C#N)sc3n2)cc(OC)c1OC | 195 to 197
NS(=O)(=O)c1ccc(-c2noc(-c3cnn4c(C5CC5)cc(-c5ccc(C(F)(F)F)cc5)nc34)n2)s1 | 290
O=C1NCc2c(Cl)nc3ccccc3c21 | 169 to 171
COc1nc(C(F)(F)F)cc(=O)n1-c1cc(C(=O)O)c(Cl)cc1F | 205 to 210
COCn1cc(C2=C(c3cn(C)c4cc([N+](=O)[O-])ccc34)C(=O)NC2=O)c2ccccc21 | > 250

Reference: a melting point compilation (Tetko et al.; mined from patent text by program, amines drawn as free bases though some values may be those of a salt)
